Measurements reported in patent US20260297106A1, “SPIROCYCLIC SUBSTITUTED OXOISOINDOLINYL PIPERIDINE-2,6-DIONE COMPOUND” (Bristol-Myers Squibb Company, priority 2023, published 2026).

Columns and labels:
Assay type in all cases: cell-based
IKZF1 Ikaros [1] = target: T1, IKZF1 Ikaros (Homo sapiens, UniProt Q13422+Q96SW2); test: Human Regulatory T Cell Degradation Assay (IKZF1 Ikaros); design: Cryopreserved healthy donor human peripheral blood mononuclear cells; endogenous in cells; host or cells: primary human PBMC, CD8+ T cells read by flow cytometry; conditions: human regulatory T cells, 20 hours, 100% = no detectable protein remaining, read-out: IKZF1 Ikaros max % deg. observed
Experimental: (§1) Cryopreserved human regulatory T cells were thawed in RPMI+10% FBS+20 ng/mL IL-2. After being spun at 1200 rpm for 5 mins, the cells were resuspended in RPMI+10% FBS+20 ng/ml and rested at 37° C. with 5% CO2 for 3 hours. The cells were then plated at 40,000 cells/well in 40 μL RPMI+10% FBS+20 ng/ml human IL~2 in a 384 well cell culture plate prior to using acoustic dispensing technology (ECHO 555) for adding compounds of interest. Cell cultures were incubated for 20 hours at 37° C. and 5% CO2. In order to facilitate analysis, cell cultures were spun down at 1200 rpm for 5 minutes and the supernatant was discarded using an EL406 plate washer. After washing three times with 70 μL PBS, cell pellets were resuspended in 50 μL of near IR viability staining solution (Life Technologies, Cat #L34975) and incubated for 30 minutes on ice protected from light. Cells were washed three times with 70 μL PBS+0.5% BSA using an EL406 plate washer. After shaking the plate to dislodge the cell pellet, cells were resuspended in 50 μL of Fixation Buffer (eBioScience FoxP3 buffer set 00-5523-00) for 60 minutes at room temperature. After centrifuging and discarding the supernatant, cells were permeabilized with 50 μL of permeabilization buffer (eBioScience FoxP3 buffer set 00-5523-00) for 10 minutes at room temperature. Following permeabilization, cells were spun down and the supernatant was replaced with 30 μL fluorescently labelled antibodies against the intracellular targets Helios (Helios-APC [BioLegend, Cat #137222, 1:50])]), Aiolos, and Ikaros Ix Permeabilization buffer and staining reactions were incubated for 1 hour at room temperature; protected from light. Subsequently, 30 μL of 1× Permeabilization buffer was added prior to centrifuging the cells and discarding the supernatant. Stained cells were resuspended in 30 μL of flow cytometry staining buffer (PBS+0.5% BSA) and analyzed using an Intellicyt Ique Plus flow cytometer.
Table B-1 lists the maximum observed degradation of the IKZF1 protein and IKZF2 protein as measured in the Human Regulatory Cell T Degradation assay. […]

IKZF2 Helios = IKZF2 Helios (Homo sapiens, UniProt Q96SW2+Q9UKS7); test: Human Regulatory T Cell Degradation Assay (IKZF2 Helios); design: T cells were isolated from fresh healthy leukopaks; endogenous in cells; host or cells: FACS-sorted primary human CD4+ CD127low CD25+ Treg cells from healthy leukopaks; conditions: human regulatory T cells, 20 hours; for Dmax: Regulatory T cell, 100% = no detectable protein remaining, read-out: IKZF2 Helios max % deg. observed; for DC50: concentration reducing protein level by 50% vs DMSO
Experimental: as §1
Table B-1 lists the maximum observed degradation of the IKZF1 protein and IKZF2 protein as measured in the Human Regulatory Cell T Degradation assay. The results in Table B-1 were rounded to two digits. In the Human Regulatory T Cell Degradation assay, a value of 100% indicated no detectable protein remaining or complete degradation of the protein; and a value of 0% indicated no detectable degradation of the protein by the test compound.

IKZF3 Aiolos = IKZF3 Aiolos (Homo sapiens, UniProt Q96SW2+Q9UKT9); test: Jurkat Cellular Degradation Assay (IKZF3 Aiolos); design: endogenous in cells; conditions: Jurkat cells, 72 h; for Dmax: human, 100% = no detectable protein remaining, read-out: IKZF3 Aiolos max % deg. observed
Experimental: (§2) Jurkat cells were plated at 80,000 cells/well in 40 μL RPMI+10% FBS in a 384-well cell culture plate prior to using acoustic dispensing technology for adding a compound of interest. Cell cultures were incubated for 72 h at 37° C. and 5% CO2. In order to facilitate analysis, cell cultures were spun down at 200 rpm for 5 min and the supernatant was discarded. After shaking the plate to dislodge the cell pellet, cells were resuspended in 50 μL of Fixation Buffer (eBioscience FoxP3 buffer set 00-5523-00) for 60 min at room temperature. After centrifuging and discarding the supernatant, cells were permeabilized with 50 μL of Permeabilization buffer (eBioscience FoxP3 buffer set 00-5523-00) for 10 min at room temperature. Following permeabilization, cells were spun down and the supernatant was replaced with 20 μL fluorescently labelled antibodies against Helios, Ikaros and Aiolos or corresponding Isotype controls in 1× Permeabilization buffer (Ikaros-Alexa488 [Biolegend, Cat #368408, 1:50], Helios-PE [CST, Cat #29360, 1:50], Aiolos-Alexa647 [Biolegend, Cat #371106 Biolegend, 1:25]) and staining reactions were incubated for 1 h at room temperature while protected from light. Subsequently, 30 μL of 1× Permeabilization buffer was added prior to centrifuging the cells and discarding the supernatant. Stained cells were resuspended in 25 μL of flow cytometry staining buffer [PBS+0.2% bovine serum albumin (BSA)] and analyzed using an Intellicyt Ique Plus flow cytometer.
(§3) Table A-1 lists the maximum observed degradation of the IKZF1 protein, IKZF2 protein, and IKZF3 protein as measured in the Jurkat Cellular Degradation assay. The results in Table A-I were rounded to two digits. In the Jurkat Cellular Degradation assay, a value of 100% indicated no detectable protein remaining or complete degradation of the protein; and a value of 0% indicated no detectable degradation of the protein by the test compound.

IKZF1 Ikaros [2] = target: T1, IKZF1 Ikaros; test: Jurkat Cellular Degradation Assay (IKZF1 Ikaros); design: endogenous in cells; conditions: Jurkat cells, 72 h; for Dmax: human, 100% = no detectable protein remaining, read-out: IKZF1 Ikaros max % deg. observed
Experimental: as §2, §3

[3] = concentration reducing protein level by 50% vs DMSO

IKZF3 Aiolos, sequence (Q9UKT9 whole entry): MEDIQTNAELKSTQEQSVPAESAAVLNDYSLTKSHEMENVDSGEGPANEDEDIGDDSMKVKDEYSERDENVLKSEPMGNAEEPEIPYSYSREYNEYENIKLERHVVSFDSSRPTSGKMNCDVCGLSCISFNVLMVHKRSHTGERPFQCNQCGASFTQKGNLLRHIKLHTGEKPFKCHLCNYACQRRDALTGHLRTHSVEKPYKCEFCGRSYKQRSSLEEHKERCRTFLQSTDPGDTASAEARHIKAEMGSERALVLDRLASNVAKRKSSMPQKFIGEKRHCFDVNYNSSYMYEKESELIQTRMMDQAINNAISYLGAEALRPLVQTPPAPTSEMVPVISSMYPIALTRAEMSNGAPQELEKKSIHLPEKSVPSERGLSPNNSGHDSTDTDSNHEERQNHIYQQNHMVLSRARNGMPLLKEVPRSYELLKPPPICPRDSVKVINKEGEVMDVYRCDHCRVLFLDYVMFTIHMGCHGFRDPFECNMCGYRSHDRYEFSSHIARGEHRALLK
IKZF3 Aiolos, sequence (Q96SW2 whole entry): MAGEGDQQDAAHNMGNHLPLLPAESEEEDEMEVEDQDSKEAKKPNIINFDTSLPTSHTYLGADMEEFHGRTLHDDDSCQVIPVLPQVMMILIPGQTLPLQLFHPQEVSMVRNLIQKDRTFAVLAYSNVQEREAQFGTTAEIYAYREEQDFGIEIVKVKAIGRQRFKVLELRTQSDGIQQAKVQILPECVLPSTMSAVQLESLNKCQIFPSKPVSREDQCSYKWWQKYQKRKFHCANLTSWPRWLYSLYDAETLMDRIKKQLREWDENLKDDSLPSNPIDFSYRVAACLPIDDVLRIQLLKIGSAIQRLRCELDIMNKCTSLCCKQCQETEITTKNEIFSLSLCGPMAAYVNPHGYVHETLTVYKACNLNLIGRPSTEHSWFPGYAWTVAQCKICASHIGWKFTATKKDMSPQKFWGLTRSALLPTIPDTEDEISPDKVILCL
IKZF3 Aiolos, sequence (Q16531 whole entry partner): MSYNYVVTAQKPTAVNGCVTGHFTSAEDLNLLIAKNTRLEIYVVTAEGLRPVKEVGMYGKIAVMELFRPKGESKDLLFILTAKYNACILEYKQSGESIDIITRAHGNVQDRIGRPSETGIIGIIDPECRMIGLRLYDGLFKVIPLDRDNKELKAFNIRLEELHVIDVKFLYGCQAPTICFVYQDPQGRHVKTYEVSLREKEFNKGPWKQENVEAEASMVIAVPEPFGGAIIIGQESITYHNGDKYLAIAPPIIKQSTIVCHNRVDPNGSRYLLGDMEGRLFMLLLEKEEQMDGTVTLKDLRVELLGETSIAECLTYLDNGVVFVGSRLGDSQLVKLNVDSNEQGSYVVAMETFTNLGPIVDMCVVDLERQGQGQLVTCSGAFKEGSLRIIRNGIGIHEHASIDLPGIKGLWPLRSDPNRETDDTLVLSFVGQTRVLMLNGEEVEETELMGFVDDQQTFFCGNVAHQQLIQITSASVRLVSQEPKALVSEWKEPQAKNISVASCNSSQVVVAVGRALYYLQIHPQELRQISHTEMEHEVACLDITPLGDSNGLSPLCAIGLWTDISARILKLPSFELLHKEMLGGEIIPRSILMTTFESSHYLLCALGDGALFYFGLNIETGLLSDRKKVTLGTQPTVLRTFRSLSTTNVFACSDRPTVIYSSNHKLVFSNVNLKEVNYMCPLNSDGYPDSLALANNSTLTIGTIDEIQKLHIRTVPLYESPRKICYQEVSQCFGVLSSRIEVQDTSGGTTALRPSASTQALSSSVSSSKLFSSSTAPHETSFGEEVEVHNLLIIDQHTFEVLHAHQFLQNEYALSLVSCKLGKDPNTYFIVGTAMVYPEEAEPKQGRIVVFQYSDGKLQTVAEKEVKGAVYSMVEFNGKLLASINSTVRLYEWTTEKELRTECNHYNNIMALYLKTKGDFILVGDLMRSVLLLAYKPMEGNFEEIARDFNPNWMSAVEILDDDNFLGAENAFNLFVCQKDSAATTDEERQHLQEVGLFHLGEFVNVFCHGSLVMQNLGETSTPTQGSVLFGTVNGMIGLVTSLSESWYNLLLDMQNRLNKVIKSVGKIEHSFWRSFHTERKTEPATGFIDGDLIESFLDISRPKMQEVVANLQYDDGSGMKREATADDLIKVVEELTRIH
T1 sequence (Q13422 whole entry): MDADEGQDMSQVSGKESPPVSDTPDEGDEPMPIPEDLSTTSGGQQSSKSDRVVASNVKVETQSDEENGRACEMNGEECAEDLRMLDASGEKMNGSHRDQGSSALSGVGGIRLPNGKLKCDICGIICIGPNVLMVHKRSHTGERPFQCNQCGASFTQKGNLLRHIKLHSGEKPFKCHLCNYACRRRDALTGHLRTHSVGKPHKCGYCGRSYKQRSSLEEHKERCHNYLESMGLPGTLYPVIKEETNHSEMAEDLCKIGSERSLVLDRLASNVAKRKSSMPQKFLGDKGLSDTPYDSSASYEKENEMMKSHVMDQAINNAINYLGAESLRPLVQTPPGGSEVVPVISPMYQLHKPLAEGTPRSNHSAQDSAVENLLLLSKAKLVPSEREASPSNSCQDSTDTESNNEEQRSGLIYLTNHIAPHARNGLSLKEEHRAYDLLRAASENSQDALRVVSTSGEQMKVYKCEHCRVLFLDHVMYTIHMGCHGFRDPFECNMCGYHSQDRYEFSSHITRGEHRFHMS
T1 sequence (Q96SW2 whole entry): as the sequence (Q96SW2 whole entry) above
T1 sequence (Q16531 whole entry partner): as the sequence (Q16531 whole entry partner) above
IKZF2 Helios, sequence (Q9UKS7 whole entry): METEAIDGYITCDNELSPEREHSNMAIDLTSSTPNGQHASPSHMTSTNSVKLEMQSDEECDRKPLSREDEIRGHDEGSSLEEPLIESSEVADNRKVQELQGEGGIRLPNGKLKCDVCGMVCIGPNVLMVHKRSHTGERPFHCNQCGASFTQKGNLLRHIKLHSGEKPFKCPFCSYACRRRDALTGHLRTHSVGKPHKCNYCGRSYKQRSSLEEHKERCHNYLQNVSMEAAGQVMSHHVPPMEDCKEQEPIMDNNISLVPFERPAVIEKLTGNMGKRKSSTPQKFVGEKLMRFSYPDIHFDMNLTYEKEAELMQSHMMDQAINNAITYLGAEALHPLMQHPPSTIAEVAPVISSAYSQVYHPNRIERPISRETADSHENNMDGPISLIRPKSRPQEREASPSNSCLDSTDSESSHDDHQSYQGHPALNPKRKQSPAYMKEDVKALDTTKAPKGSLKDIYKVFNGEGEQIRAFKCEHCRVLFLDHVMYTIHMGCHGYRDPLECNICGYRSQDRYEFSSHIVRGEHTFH
IKZF2 Helios, sequence (Q96SW2 whole entry): as the sequence (Q96SW2 whole entry) above
IKZF2 Helios, sequence (Q16531 whole entry partner): as the sequence (Q16531 whole entry partner) above

SMILES | Dmax (IKZF1 Ikaros [1]) [%] | Dmax (IKZF2 Helios) [%] | DC50 (IKZF2 Helios) [nM] | Dmax (IKZF3 Aiolos) [%] | Dmax (IKZF1 Ikaros [2]) [%] | DC50 (IKZF3 Aiolos; [3]) [nM] | DC50 (IKZF1 Ikaros [2]; [3]) [nM]
O=C1CCC(N2Cc3c(ccc(-c4cc(CN5CC(c6ccccc6)C5)ccn4)c3F)C2=O)C(=O)N1 (centres unmarked) [Comparative Compound A, 3-(4-fluoro-1-oxo-5-(4-((3-phenylazetidin-1-yl)methyl)pyridin-2-yl)isoindolin-2-yl) piperidine-2,6-dione] | 19 | 101 | 2.9 | 14 | 13 |  | 
Nc1nc(-c2ccc3c(c2)CN(C2CCC(=O)NC2=O)C3=O)ccc1CN1CC2(CCC2)C1 (centres unmarked) [Comparative Compound B, 3-(5-(5-((2-azaspiro[3.3]heptan-2-yl)methyl)-6-aminopyridin-2-yl)-1-oxoisoindolin-2-yl) piperidine-2,6-dione] | 37 | 97 | 11 | 28 | 48 |  | 
Nc1nc(-c2ccc3c(c2F)CN(C2CCC(=O)NC2=O)C3=O)ccc1CN1CC2(CCCOC2)C1 (centres unmarked) [Example 1, 3-(5-(5-((6-oxa-2-azaspiro[3.5]nonan-2-yl)methyl)-6-aminopyridin-2-yl)-4-fluoro-1-oxoisoindolin-2-yl) piperidine-2,6-dione] | 49 | 100 | 10 | 33 | 53 | > 10000 | 6440
